Converted amounts (≈) assume the structure as drawn. Where a name gives a salt, the structure may show the parent alone.
Legend:
E. coli DNA gyrase [1] = target: T1, E. coli DNA gyrase (Escherichia coli, UniProt P0AES6); assay: Test for evaluating the activity of inhibiting E. coli DNA gyrase enzyme (Method 1, supercoiling, Inspiralis enzyme); format: biochemical
T1 construct: made in house; host or cells: E. coli BL21 (DE3)
Description: Test Example 1-1 Test for Evaluating the Activity of Inhibiting E. coli DNA Gyrase Enzyme (Method 1)
The enzymatic activity of E. coli DNA gyrase was measured by a method comprising reacting DNA gyrase and its substrate, relaxed pBR322 (Inspiralis), in the presence of ATP and detecting the post-reaction supercoiled pBR322/relaxed pBR322 ratio with H19 (Profoldin).
Specifically, to 1 ng/μL of relaxed pBR322, E. coli DNA gyrase enzyme (Inspiralis) was added at a final concentration of 0.006 U/μL and the mixture was incubated for 60 minutes at room temperature. This reaction was carried out in 20 mmol/L tris-HCl buffered solution (pH 8.0) comprising 0.5 mmol/L ATP, 0.005% bridge 35, 35 mmol/L ammonium acetate, 8 mmol/L magnesium chloride, 4.6% glycerol, and 1 mmol/L dithiothreitol. To the reaction mixture, H19 was added to bring the reaction to an end; thereafter, the supercoiled pBR322/relaxed pBR322 ratio was detected at excitation wavelength/emission wavelength=485 nm/535 nm. An inhibition curve was obtained by allowing the analyte compound to be present at varying concentrations during the reaction described above. […] The test results of interest are shown in [Table 20-1] and [Table 20-2].

E. Coli ATCC 25922 = assay: Test for evaluating antibacterial activity (E. coli), broth microdilution MIC; format: cell-based; details: Escherichia coli, ATCC25922; 35° C., 18 hours, cation-adjusted Mueller-Hinton medium
Summary of the method: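 Broth microdilution per modified CLSI method in cation-adjusted Mueller-Hinton medium. Inoculum from overnight heart infusion agar growth, McFarland 0.5 suspension diluted 10-fold; incubation 35° C for 18 hours. MIC taken as lowest drug concentration with no visible growth.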

E. coli DNA gyrase [2] = target: T1, E. coli DNA gyrase; assay: Test for evaluating the activity of inhibiting E. coli DNA gyrase enzyme (Method 2, supercoiling, recombinant gyrA/gyrB complex); format: biochemical; details: Method 2; read-out: E. Coli Gyrase supercoiling IC50
Summary of the method: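 Recombinant E. coli gyrA/gyrB complex (His-tagged, BL21(DE3)-expressed, Ni-NTA purified; 0.135 nmol/mL final) supercoiled relaxed pBR322 (1 ng/μL) with 0.5 mmol/L ATP in pH 8.0 Tris buffer, 60 min at room temperature. H19 stopped the reaction; supercoiled/relaxed ratio read at 485/535 nm, inhibition curves built from varying compound concentrations.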

[3] = tested on: N. gonorrhoeae ATCC 49226; assay: Test for evaluating antibacterial activity (N. gonorrhoeae), broth microdilution MIC; format: cell-based; details: Neisseria gonorrhoeae, ATCC49226; 35° C., 24 hours, gonococcal broth
Description: Minimum inhibitory concentration (MIC) was measured using the broth microdilution method described below in accordance with a modification of the method of Geers et al. (Antimicrob. Agents. Chemother. (1989), 33, 233-234).
After sterilization, BD. Difco supplement C was added to give a final concentration of 1%, whereby a gonococcal broth was prepared.
Bacterial cells under test were cultured overnight on a chocolate II agar medium, scraped off and suspended at a concentration equivalent to McFarland 0.5 turbidity; the suspension thus obtained was diluted 5 folds to give a liquid inoculum. The inoculum (0.005 mL) was inoculated on a gonococcal broth containing the analyte compound and cultured at 35° C. for 24 hours. A minimum drug concentration at which no bacterial growth was macroscopically visible was designated MIC.

[4] = Method 1, read-out: E. Coli Gyrase supercoiling IC50

| Structure (SMILES) | IC50 (E. coli DNA gyrase [1]; [4]) [nM] | MIC (E. Coli ATCC 25922) [µg/mL] | other results |
| --- | --- | --- | --- |
| CNc1cc(F)cc2cc(C(=O)Nc3ccc(C(=O)O)cc3CNCCO)c(=O)[nH]c12 [Example 74, 4-{[6-fluoro-8-(methylamino)-2-oxo-1,2-dihydroquinoline-3-catbonyl]amino}-3-{[(2-hydroxyethyl)amino]methyl} benzoic acid-hydrochloride] | 129 | > 64 |  |
| CNc1cc(F)cc2cc(C(=O)Nc3cnc(NCCN4CCOCC4)nc3)c(=O)[nH]c12 [Example 69, 6-fluoro-8-(methylamino)-N-(2-{[2-(morpholine-4-yl)ethyl]amino}pyrimidine-5-yl)-2-oxo-1,2-dihydroquinoline-3-carboxamide] | 7 | 8 (≈ 18.1 µM) |  |
| CNc1cc(F)cc2cc(C(=O)Nc3ccc(C(=O)NCCN)cc3)c(=O)[nH]c12.Cl [Example 68, N-(4-[(2-aminoethyl)carbamoyl]phenyl}-6-fluoro-8-(methylamino)-2-oxo-1,2-dihydroquinoline-3-carboxamide-hydrochloride] |  | > 8 | IC50 (E. coli DNA gyrase [1]): 9.4 nM |
| CNc1cc(F)cc2cc(C(=O)Nc3cnc(C(=O)NCCN4CCOCC4)nc3)c(=O)[nH]c12 [Example 53, 6-fluoro-8-(methylamino)-N-(2-{[2-(morpholine-4-yl)ethyl]carbamoyl}pyrimidine-5-yl)-2-oxo-1,2-dihydroquinoline-3-carboxamide] | 1.49 | 0.25 (≈ 0.533 µM) |  |
| CNc1cc(F)cc2cc(C(=O)NCCc3ccccn3)c(=O)[nH]c12 [Example 79, 6-fluoro-8-(methylamino)-2-oxo-N-[2-(pyridine-2-yl)ethyl]-1,2-dihydroquinoline-3-carboxamide] | 175 |  |  |
| CNc1cccc2cc(C(=O)Nc3cnc(C(=O)O)nc3)c(=O)[nH]c12 [Example 20, 5-{[8-(methylamino)-2-oxo-1,2-dihydroquinoline-3-carbonyl]amino}pyrimidine-2-carboxylic acid] | 1.19 | > 16 |  |
| CNc1cccc2cc(C(=O)NCc3ccccn3)c(=O)[nH]c12 [Example 21, 8-(methylamino)-2-oxo-N-[(pyridine-2-yl)methyl]-1,2-dihydroquinoline-3-carboxamide] |  |  | inhibition at 3 µM (E. coli DNA gyrase [1]; Method 1, at 3000 nM): 44% |
| CNc1cccc2cc(C(=O)NC3CCN(c4nccs4)C3)c(=O)[nH]c12 (centres unmarked) [Example 23, 8-(methylamino)-2-oxo-N-[1-(1,3-thiazole-2-yl)pyrrolidine-3-yl]-1,2-dihydroquinoline-3-carboxamide] | 697 | > 4 |  |
| CNc1cccc2cc(C(=O)N[C@@H](Cc3c[nH]cn3)C(=O)O)c(=O)[nH]c12 [Example 13, N-[8-(methylamino)-2-oxo-1,2-dihydroquinoline-3-carbonyl]-L-histidine-trifluoroacetate] | 31700 |  |  |
| Nc1cccc2cc(C(=O)Nc3cccc(C(=O)O)c3)c(=O)[nH]c12 [Example 165, 3-[(8-Amino-2-oxo-1,2-dihydroquinoline-3-carbonyl)amino]benzoic acid-trifluoroacetate] |  |  | inhibition at 50 µM (E. coli DNA gyrase [1]; Method 1, at 50000 nM): 27% |
| CNc1cc(F)cc2cc(C(=O)NCCc3ccccc3)c(=O)[nH]c12 [Example 78, 6-fluoro-8-(methylamino)-2-oxo-N-(2-phenylethyl)-1,2-dihydroquinoline-3-carboxamide] |  |  | inhibition at 0.3 µM (E. coli DNA gyrase [1]; Method 1, at 300 nM): 12% |
| CNc1cc(F)cc2c(O)c(C(=O)Nc3ccc(C(=O)NS(=O)(=O)N(C)C)cc3CN3CCCCC3)c(=O)[nH]c12 [Example 164, N-{4-[(dimethyl-sulfamoyl)carbamoyl]-2-[(piperidine-1-yl)methyl]phenyl}-6-fluoro-4-hydroxy-8-(methylamino)-2-oxo-1,2-dihydroquinoline-3-carboxamide] |  | 64 (≈ 111 µM) | IC50 (E. coli DNA gyrase [2]): 4.44 nM; MIC [3]: 0.12 µg/mL (≈ 0.209 µM) |
| CNc1cc(F)cc2cc(C(=O)Nc3ccc(C(O)C(N)=O)cc3)c(=O)[nH]c12 (centres unmarked) [Example 158, N-[4-(2-amino-1-hydroxy-2-oxoethyl)phenyl]-6-fluoro-8-(methylamino)-2-oxo-1,2-dihydroquinoline-3-carboxamide] |  | > 16 | IC50 (E. coli DNA gyrase [2]): 7.78 nM; MIC [3]: 0.03 µg/mL (≈ 0.0781 µM) |

Source: US20210070747A1, “2(1H)-QUINOLINONE DERIVATIVE” (priority 2017, published 2021)
